Columns and labels:
[1] = system: complement system alternative pathway; experiment: CAP Wieslab assay (CAP-mediated TCC production); format: biochemical, human; conditions: AP activity in vitro
[2] = Phase 2 study in PNH subjects: reticulocyte count; format: in vivo, human; conditions: Compound 1 100 mg TID + IV eculizumab
Procedure: (§1) The starting dose of compound 1 is based upon group assignment. The Group 1 dose is 100mg three times daily (TID). The Group 2 dose is 150 mg TID. The Group 3 dose is 200 mg TID. The Group 4 dose will receive the optimal dose determined from Groups 1-3.
All doses are taken approximately 15-30 minutes after completion of a meal or snack.
This will be followed by a long-term extension phase.
(§2) 2 subjects in the first dose level of 100 mg TID have been completed and data collected through 4 weeks. Data collected include lactate dehydrogenase (LDH) levels, hemoglobin levels, reticulocytes, PNH red blood cells (Type III) percentage, C3 Fragment Deposition percentage, and bilirubin levels and their changes from baseline.
A reticulocyte count is a pharmacodynamic marker that is measured from blood drawn on Day 1, Week 1, Week 2, and Week 4 (FIGS. 15A & 15B and Table 17). A reticulocyte count measures the number of immature red blood cells in a blood sample. People who have PNH may have elevated reticulocyte counts because their bone marrow is producing a lot of new red blood cells.

[3] = Phase 2 study in PNH subjects: lactate dehydrogenase levels; format: in vivo, human; conditions: Compound 1 100 mg TID + IV eculizumab
Procedure: as §1
All doses are taken approximately 15-30 minutes after completion of a meal or snack. […]
as §2
Lactate dehydrogenase is a pharmacodynamic marker that is measured from blood drawn on Day 1, Week 1, Week 2, and Week 4 (FIGS. 13A & 13B and Table 15). High levels of LDH in the blood can be an indication of hemolysis.

PNH erythrocytes = experiment: CAP-mediated hemolysis assay with PNH erythrocytes (subject A); format: cell-based, human; conditions: for inhibition at 0.0234 µM: Compound 1 0.0234 μM; for inhibition at 0.0469 µM: Compound 1 0.0469 μM; for inhibition at 0.0938 µM: Compound 1 0.0938 μM; for inhibition at 0.1875 µM: Compound 1 0.1875 μM; for inhibition at 0.188 µM: Compound 1 0.188 μM; for inhibition at 0.375 µM: Compound 1 0.375 μM; for inhibition at 0.75 µM: Compound 1 0.75 μM; for inhibition at 1.5 µM: Compound 1 1.5 μM
Procedure: Complement-preserved normal human serum (NHS) from an individual donor of ABO blood group type AB (NHS-AB) was purchase from BioreclamationIVT (Westbury, NY). Gelatin veronal buffer (GVB), pH 7.3, without Ca^++ and Mg^++ (GVB^0) and 100 mM MgCl2 +100 mM EGTA (MgEGTA) were obtained from Complement Technology Inc. (Tyler, TX).
GVB^0·MgEGTA was prepared by mixing GVB^0 and 100 mM MgEGTA in a 9:1 ratio. PNH erythrocytes were used within five days of blood collection; before assay cells were collected by centrifugation at 800×g and 4° C. for 3 minutes and resuspended in fresh cold GVB^0·MgEGTA to a density of 5×10^8 cells/mL.
50 μL of NHS-AB was added to each well. The plates were mixed and incubated at room temperature for 5 minutes. 24 μL of this NHS-AB with compound was then transferred to duplicate wells of V-bottom microtiter plates each containing 76 μL GVB0·MgEGTA. 20 μL PNH erythrocytes was then added to each well and the plates were sealed, mixed, and incubated at 37° C. for 30 minutes with an added shaking for 15 minutes. […] Following incubation, PNH cells were removed by centrifugation at 800×g and 4° C. for 3 minutes, 100 μL supernatant per well was transferred to flat-bottom clear microtiter plates, and A405 of the supernatant was measured in a Molecular Devices Spectramax Plus plate reader.
Combinatorial interactions were analyzed via two methods.
Inhibition was analyzed by the method of Prichard and Shipman (Prichard, M. N. and C. Shipman, Jr. A Three-Dimensional Model to Analyze Drug-Drug Interactions. Antiviral Research 1990, 14:181-205) Three-dimensional surface graphs of each experiment were generated and analyzed using an Excel spreadsheet program adapted from the MacSynergy II spreadsheet (University of Alabama, Birmingham, AL). The X-axis and Y-axis of each surface graph represent the concentrations of the two test compounds, and the Z-axis represents the difference between measured inhibition and a theoretically determined additive inhibition. For an additive relationship, the surface graph resembles a horizontal plane at Z=0, whereas positive surface peaks indicate greater inhibition than expected and therefore synergy, and negative surface peaks indicate less inhibition than expected and therefore antagonism.
Synergy and antagonism volumes were calculated separately as the summed volumes of peaks respectively above and below the Z=0 plane. Volumes were determined using 95% confidence limits to assure significance.
Inhibition was analyzed by the method of Chou and Talalay (Chou, T.-C. and P. Talalay. Analysis of Combined Drug Effects: A New Look at a Very Old Problem. Trends Pharmacol. Sci. 1983, 4:450-454; Chou, T. C. Theoretical basis, experimental design, and computerized simulation of synergism and antagonism in drug combination studies. Pharmacological Reviews 2006, 58:621-681). Analysis using the median-effect equation of Chou and Talalay was performed with CompuSyn software (ComboSyn, Inc, Paramus, NJ). […] Combination index (CI) values were determined at inhibition values of 50%, 75%, and 90%.

[4] = subject 003-001, DAY 1 (baseline)
[5] = subject 003-002, DAY 1 (baseline)
[6] = Homo sapiens, Erythrocyte, Experiment 2, Eculizumab 0-400 μg/mL
[7] = Homo sapiens, Erythrocyte, Experiment 2, Compstatin 0-300 μM
[8] = Homo sapiens, Erythrocyte, Experiment #1, Compstatin 0-300 μM
[9] = Homo sapiens, Erythrocyte, Experiment #1, Eculizumab 0-400 μg/mL

CC(=O)c1nn(CC(=O)N2C[C@H](F)C[C@H]2C(=O)Nc2cccc(Br)n2)c2ccc(-c3cnc(C)nc3)cc12 [Compound 1, (2S,4R)-1-(2-(3-acetyl-5-(2-methylpyrimidin-5-yl)-1H-indazol-1-yl)acetyl)-N-(6-bromopyridin-2-yl)-4-fluoropyrrolidine-2-carboxamide]
IC50 [1]: 26 nM | RETICULOCYTES Observed [2, 4]: 159 10^9/L | RETICULOCYTES CFB (change from baseline) ([2]; subject 003-001, DAY 1): 0 10^9/L | RETICULOCYTES CFB (change from baseline) ([2]; subject 003-001, WEEK 1): −39 10^9/L | RETICULOCYTES Observed ([2]; subject 003-001, WEEK 1): 120 10^9/L | RETICULOCYTES CFB (change from baseline) ([2]; subject 003-001, WEEK 2): −34 10^9/L | RETICULOCYTES Observed ([2]; subject 003-001, WEEK 2): 125 10^9/L | RETICULOCYTES CFB (change from baseline) ([2]; subject 003-001, WEEK 4): −64 10^9/L | RETICULOCYTES Observed ([2]; subject 003-001, WEEK 4): 95 10^9/L | RETICULOCYTES Observed [2, 5]: 250 10^9/L | RETICULOCYTES CFB (change from baseline) ([2]; subject 003-002, DAY 1): 0 10^9/L | RETICULOCYTES CFB (change from baseline) ([2]; subject 003-002, WEEK 1): −106 10^9/L | RETICULOCYTES Observed ([2]; subject 003-002, WEEK 1): 144 10^9/L | RETICULOCYTES CFB (change from baseline) ([2]; subject 003-002, WEEK 2): −85 10^9/L | RETICULOCYTES Observed ([2]; subject 003-002, WEEK 2): 165 10^9/L | RETICULOCYTES CFB (change from baseline) ([2]; subject 003-002, WEEK 4): −118 10^9/L | RETICULOCYTES Observed ([2]; subject 003-002, WEEK 4): 132 10^9/L | LDH Observed [3, 4]: 357 U/L | LDH CFB (change from baseline) ([3]; subject 003-001, DAY 1): 0 U/L | LDH CFB (change from baseline) ([3]; subject 003-001, WEEK 1): −83 U/L | LDH Observed ([3]; subject 003-001, WEEK 1): 274 U/L | LDH CFB (change from baseline) ([3]; subject 003-001, WEEK 2): −105 U/L | LDH Observed ([3]; subject 003-001, WEEK 2): 252 U/L | LDH CFB (change from baseline) ([3]; subject 003-001, WEEK 4): −86 U/L | LDH Observed ([3]; subject 003-001, WEEK 4): 271 U/L | LDH Observed [3, 5]: 210 U/L | LDH CFB (change from baseline) ([3]; subject 003-002, DAY 1): 0 U/L | LDH CFB (change from baseline) ([3]; subject 003-002, WEEK 1): −52 U/L | LDH Observed ([3]; subject 003-002, WEEK 1): 158 U/L | LDH CFB (change from baseline) ([3]; subject 003-002, WEEK 2): −40 U/L | LDH Observed ([3]; subject 003-002, WEEK 2): 170 U/L | LDH CFB (change from baseline) ([3]; subject 003-002, WEEK 4): −31 U/L | LDH Observed ([3]; subject 003-002, WEEK 4): 179 U/L | inhibition at 0.0234 µM (PNH erythrocytes; [6]): 0% | inhibition at 0.0469 µM (PNH erythrocytes; [6]): 0% | inhibition at 0.0938 µM (PNH erythrocytes; [7]): 0% | inhibition at 0.0938 µM (PNH erythrocytes; [6]): 0% | inhibition at 0.1875 µM (PNH erythrocytes; [7]): 6% | inhibition at 0.188 µM (PNH erythrocytes; [6]): 7% | inhibition at 0.375 µM (PNH erythrocytes; [7]): 27% | inhibition at 0.375 µM (PNH erythrocytes; [6]): 27% | inhibition at 0.75 µM (PNH erythrocytes; [7]): 65% | inhibition at 0.75 µM (PNH erythrocytes; [6]): 42% | inhibition at 1.5 µM (PNH erythrocytes; [7]): 90% | inhibition at 1.5 µM (PNH erythrocytes; [6]): 77% | inhibition at 3 µM (PNH erythrocytes; Homo sapiens, Erythrocyte, Experiment 2, Compound 1 3 μM, Compstatin 0-300 μM): 97% | inhibition at 6 µM (PNH erythrocytes; Homo sapiens, Erythrocyte, Experiment 2, Compound 1 6 μM, Compstatin 0-300 μM): 97% | inhibition at 0.0234 µM (PNH erythrocytes; [8]): 0% | inhibition at 0.0234 µM (PNH erythrocytes; [9]): 4% | inhibition at 0.0469 µM (PNH erythrocytes; [8]): 0% | inhibition at 0.0469 µM (PNH erythrocytes; [9]): 2% | inhibition at 0.0938 µM (PNH erythrocytes; [8]): 0% | inhibition at 0.0938 µM (PNH erythrocytes; [9]): 6% | inhibition at 0.1875 µM (PNH erythrocytes; [8]): 11% | inhibition at 0.188 µM (PNH erythrocytes; [9]): 14% | inhibition at 0.375 µM (PNH erythrocytes; [8]): 19% | inhibition at 0.375 µM (PNH erythrocytes; [9]): 24% | inhibition at 0.75 µM (PNH erythrocytes; [8]): 51% | inhibition at 0.75 µM (PNH erythrocytes; [9]): 55% | inhibition at 1.5 µM (PNH erythrocytes; [8]): 80% | inhibition at 1.5 µM (PNH erythrocytes; [9]): 86% | IC50 (PNH erythrocytes; Homo sapiens, Erythrocyte, AP activity in vitro): 14 nM | inhibition at the high end of the test concentration ranges (PNH erythrocytes; single agent, PNH erythrocytes): complete inhibition
